Measured values from article PMC9572083, “Hybrids of 1,4-Quinone with Quinoline Derivatives: Synthesis, Biological Activity, and Molecular Docking with DT-Diaphorase (NQO1)” (Molecules, 2022).

Legend:
MCF-7 cells = test: Cytotoxic activity, WST-1 assay, breast cancer MCF-7; format: cell-based, human; conditions: for SI (IC50 HFF-1/IC50 cancer line) MCF-7: HFF-1 vs MCF-7; for IC50: Homo sapiens, MCF7, breast cancer MCF-7, 72 h, WST-1
Text: (§1) Anticancer activity of compounds 11–14 was designated against following human cancer cell lines: melanoma (Colo-829), ovarian cancer (SK-OV-3), breast cancer (MDA-MB-231, T47D and MCF-7), lung cancer (A549) and normal fibroblasts (HFF-1). As a reference substance, the doxorubicin was used. The results are presented in Table 1 as IC50, where IC50 means the concentration of tested compounds (µM) causing the growth inhibition of 50% for given tumor cells. The negative value (Neg.) means that the IC50 is higher than 30 µM. Selectivity index (SI) as the ratio of the IC50 for normal fibroblast (HFF-1) to IC50 of the corresponding cell line, is presented in Table S2.
(§2) Compounds 7–14 and doxorubicin were tested for cytotoxic activity in vitro against panel of human cancer cell lines: melanoma (Colo-829, ATCC, Rockville, MD, USA), ovarian cancer (SK-OV-3, ATCC, Rockville, MD, USA), breast cancer (T47D, MCF-7, and MDA-MB-231, ATCC, Rockville, MD, USA) and lung cancer (A549, ATCC, Rockville, MD, USA). The cultured cells were kept at 37 °C and 5% CO2. The cells were seeded (5 × 10^4 cells/well/[…] DMEM supplemented with 10% FCS and streptomycin/penicillin) using 96-well plates (Nunc Thermo Fisher Scientific, Waltham, MA, USA). The tested compounds 7–14 with the concentration of 1–100 µg/mL DMSO were inducted with the cancer cells for 72 h. The WST-1-formazan (proliferation reagent WST-1 assay, Roche Diagnostics, Mannheim, Germany) was detected using a microplate reader at 450 nm. Results were expressed as a mean value of at least three independent experiments performed in triplicate.

MDA-MB-231 cells = test: Cytotoxic activity, WST-1 assay, breast cancer MDA-MB-231; format: cell-based, human; conditions: for SI (IC50 HFF-1/IC50 cancer line) MDA-MB-231: HFF-1 vs MDA-MB-231; for IC50: Homo sapiens, breast cancer MDA-MB-231, 72 h, WST-1
Text: as §1, §2

Colo-829 cells = test: Cytotoxic activity, WST-1 assay, melanoma Colo-829; format: cell-based, human; conditions: for SI (IC50 HFF-1/IC50 cancer line) Colo-829: HFF-1 vs Colo-829; for IC50: Homo sapiens, melanoma Colo-829, 72 h, WST-1
Text: as §1, §2

HFF-1 cells = test: Cytotoxic activity, WST-1 assay, normal fibroblasts HFF-1; format: cell-based; conditions: Homo sapiens, normal fibroblasts HFF-1, 72 h
Text: as §1, §2

TP53 = test: Transcriptional activity of TP53 gene in A549 cells (RT-QPCR); format: cell-based, human; conditions: 24 h, concentration equal to half of IC50
Protocol: (§3) The mechanism of anticancer activity was determined by detection of transcriptional activity of the genes encoding a proliferation marker (H3 histone), cell cycle regulators (p53 and p21), and the mitochondrial apoptosis pathway (BCL-2 and BAX) (Figure 3a–d). The derivatives 11b, 12b, 13b, and 14b were selected for this study.
(§4) Transcriptional activity of genes (TP53, CDKN1A, BAX, and BCL-2) was rated by real-time RT-QPCR using Opticon™ DNA Engine system (MJ Research, Watertown, NY, USA) and QuantTect® SYBR® Green RT-PCR Kit (Qiagen, Hilden, Germany). Cultured cells were incubated with tested compounds for 24 h. RNA was extracted using Quick-RNA™ MiniPrep kit columns (Zymo Research, Irvine, CA, USA). The extracted RNA was assessed qualitatively and quantitatively. The amount and purity of the total RNA in extracts were determined spectrophotometrically (HP8452A apparatus, Hewlett Packard, Waldbronn, Germany).

T47D cells = test: Cytotoxic activity, WST-1 assay, breast cancer T47D; format: cell-based, human; conditions: for SI (IC50 HFF-1/IC50 cancer line) T47D: HFF-1 vs T47D; for IC50: Homo sapiens, breast cancer T47D, 72 h, WST-1
Text: as §1, §2

[1] = target: T1, NQO1 (DT-diaphorase, EC 1.6.5.5, human recombinant) (Homo sapiens, UniProt P15559); test: NQO1 substrate NADPH recycling enzymatic assay; format: biochemical; conditions: compound 10 µmol/L, pH 7.4, 25 °C, absorbance at 340 nm
T1 construct: purchased Sigma-Aldrich
Protocol: The interaction between 1,4-quinone moiety of hybrid and NQO1 protein leads to reduction in quinone to hydroquinone and production of reactive oxide form (ROS). According to a literature method, the ability of hybrids 11–14 and streptonigrin (ST) to be a substrate for NQO1 was examined by measuring the oxidation of NADPH to NADP^+ [29, 32].
Compounds 11–14 (10 µmol/L) were tested as NQO1 substrates using the NADPH recycling assay according to the literature method. The recombinant NQO1 (DT-diaphorase, EC 1.6.5.5, human recombinant, Sigma-Aldrich) was used, and the oxidation of NADPH to NADP^+ was measured at the absorption wavelength of 340 nm on the BioTek 800TS microplate reader (BioKom, Janki, Poland). Compounds were dissolved in dimethyl sulfoxide (2 µL) and added to the 96-well plate. The NQO1 protein (1.4 µg/mL) in 50 mmol/L potassium phosphate buffer (pH = 7.4) was added to each well (198 µL) (Nunc Thermo Fisher Scientific, Waltham, MA, USA). Once the 96-well plate was filled with the assay solutions, except the NADPH solution, it was placed into the instrument and left to sit for 5 min before starting the measurements. The enzymatic reaction was initiated by automatically dispensing the NADPH solution into the wells, and data were recorded at 10 s intervals for 5 min at 25 °C. The linear part of the absorbance vs. time graphs (the first 20 s to 1 min) was fitted, and the slopes were calculated. NADPH oxidation rates were compared with reactions lacking the tested compound. Initial velocities were calculated, and data were expressed as µmol NADPH/µmol NQO1/min. All reactions were carried out at least in triplicate.

A549 cells = test: Cytotoxic activity, WST-1 assay, lung cancer A549; format: cell-based, human; conditions: for SI (IC50 HFF-1/IC50 cancer line) A549: HFF-1 vs A549; for IC50: Homo sapiens, lung cancer A549, 72 h, WST-1
Text: as §1, §2

SK-OV-3 cells = test: Cytotoxic activity, WST-1 assay, ovarian cancer SK-OV-3; format: cell-based, human; conditions: for SI (IC50 HFF-1/IC50 cancer line) SK-OV-3: HFF-1 vs SK-OV-3; for IC50: Homo sapiens, ovarian cancer SK-OV-3, 72 h, WST-1
Text: as §1, §2

CDKN1A = test: Transcriptional activity of CDKN1A gene in A549 cells (RT-QPCR); format: cell-based, human; conditions: 24 h, concentration equal to half of IC50
Protocol: as §3, §4

H3 histone gene = test: Transcriptional activity of H3 histone gene in A549 cells (RT-QPCR); format: cell-based, human; conditions: 24 h, concentration equal to half of IC50
Protocol: as §3, §4

T1 sequence (P15559 whole entry): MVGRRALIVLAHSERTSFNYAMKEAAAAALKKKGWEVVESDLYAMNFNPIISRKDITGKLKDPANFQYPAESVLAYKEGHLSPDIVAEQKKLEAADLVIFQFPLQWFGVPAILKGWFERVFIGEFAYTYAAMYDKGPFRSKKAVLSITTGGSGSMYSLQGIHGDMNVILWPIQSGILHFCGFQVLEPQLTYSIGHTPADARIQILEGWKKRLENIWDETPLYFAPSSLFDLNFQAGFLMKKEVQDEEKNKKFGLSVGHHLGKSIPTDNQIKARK

Row | Compound | SI (IC50 HFF-1/IC50 cancer line) MCF-7 (MCF-7 cells) | IC50 (MCF-7 cells) | SI (IC50 HFF-1/IC50 cancer line) MDA-MB-231 (MDA-MB-231 cells) | IC50 (MDA-MB-231 cells) | SI (IC50 HFF-1/IC50 cancer line) Colo-829 (Colo-829 cells) | IC50 (Colo-829 cells) | IC50 (HFF-1 cells) | TP53 gene expression (TP53) | SI (IC50 HFF-1/IC50 cancer line) T47D (T47D cells) | IC50 (T47D cells) | NQO1 activity (enzymatic conversion rate) [1] | melting point | SI (IC50 HFF-1/IC50 cancer line) A549 (A549 cells) | IC50 (A549 cells) | SI (IC50 HFF-1/IC50 cancer line) SK-OV-3 (SK-OV-3 cells) | IC50 (SK-OV-3 cells) | CDKN1A expression (copies of mRNA) (CDKN1A) | Number of mRNA copies of the histone H3 gene (H3 histone gene)
1 | Cc1ccc2cccc(OC3=C(Cl)C(=O)c4cccnc4C3=O)c2n1 [Compound 11b, 6-chloro-7-[(2-methylquinolin-8-yl)oxy]quinoline-5,8-dione] | 12.34 | 2110 ± 80 nM | 15.87 | 1640 ± 150 nM | 13.56 | 1920 ± 110 nM | 26100 ± 1020 nM | significant increase | 10.76 | 2420 ± 130 nM | 1294 ± 51 µmol NADPH/µmol NQO1/min | 110 to 112 °C | 14.62 | 1780 ± 210 nM | 15.40 | 1690 ± 30 nM |  | 
2 | Cc1ccc2c(n1)C(=O)C(Oc1cccc3ccc(C)nc13)=C(Cl)C2=O [Compound 12b, 6-chloro-2-methyl-7-[(2-methylquinolin-8-yl)oxy]quinoline-5,8-dione] | 5.70 | 1780 ± 30 nM | 6.46 | 1570 ± 190 nM | 6.01 | 1690 ± 80 nM | 10200 ± 1330 nM | significant increase | 5.34 | 1900 ± 230 nM | 1437 ± 42 µmol NADPH/µmol NQO1/min | 130 to 132 °C | 7.10 | 1430 ± 60 nM | 6.81 | 1490 ± 210 nM |  | 
3 | Cc1ccc2cccc(OC3=C(Cl)C(=O)c4ccncc4C3=O)c2n1 [Compound 13b, 6-chloro-7-[(2-methylquinolin-8-yl)oxy]isoquinoline-5,8-dione] | 42.69 | 610 ± 90 nM | 236.73 | 110 ± 10 nM | 66.77 | 390 ± 110 nM | 26000 ± 1600 nM | significant increase | 20.19 | 1290 ± 30 nM | 1143 ± 36 µmol NADPH/µmol NQO1/min | 110 to 112 °C | 45.68 | 570 ± 20 nM | 53.14 | 490 ± 50 nM | highest increase | reduce the amount of mRNA copies by half
4 | O=C1C(Cl)=C(Oc2cccc3cccnc23)C(=O)c2ccccc21 [Compound 14a, 2-chloro-3[(quinolin-8-yl)oxy]naphthalene-1,4-dione] | 0.91 | 14100 ± 980 nM | 0.84 | 15200 ± 850 nM | 0.84 | 15300 ± 2560 nM | 12800 ± 850 nM |  |  | > 30000 nM | 1282 ± 29 µmol NADPH/µmol NQO1/min | 115 to 117 °C | 19.71 | 650 ± 70 nM | 7.54 | 1700 ± 290 nM |  | 
5 | Cc1ccc2cccc(OC3=C(Cl)C(=O)c4ccccc4C3=O)c2n1 [Compound 14b, 2-chloro-3-[(2-methylquinolin-8-yl)oxy]naphthalene-1,4-dione] | 0.68 | 16300 ± 1080 nM | 0.58 | 19200 ± 620 nM | 0.74 | 15000 ± 1030 nM | 11100 ± 1620 nM | slight increase | 0.50 | 22200 ± 1030 nM | 1260 ± 15 µmol NADPH/µmol NQO1/min | 100 to 102 °C | 5.30 | 2100 ± 290 nM | 0.66 | 16800 ± 590 nM | slight effect | reduce the amount of mRNA copies by half
6 | O=Cc1ccc2cccc(OC3=C(Cl)C(=O)c4ccccc4C3=O)c2n1 [Compound 14c, 8-[(3-chloro-1,4-dioxo-1,4-dihydronaphthalen-2-yl)oxy]quinoline-2-carbaldehyde] |  | > 30000 nM | 0.71 | 25100 ± 970 nM |  | > 30000 nM | 18000 ± 1750 nM |  | 11.09 | 1620 ± 210 nM | 550 ± 62 µmol NADPH/µmol NQO1/min | 131 to 133 °C | 43.80 | 410 ± 60 nM | 71.84 | 250 ± 60 nM |  | 
7 | O=C1C(Cl)=C(Oc2cccc3ccc(Cl)nc23)C(=O)c2ccccc21 [Compound 14d, 2-chloro-3-[(2-chloroquinolin-8-yl)oxy]naphthalene-1,4-dione] | 1.23 | 11700 ± 1340 nM | 6.99 | 2050 ± 350 nM | 0.80 | 18000 ± 2010 nM | 14300 ± 1230 nM |  |  | > 30000 nM | 1001 ± 43 µmol NADPH/µmol NQO1/min | 101 to 103 °C | 1.76 | 8130 ± 1020 nM | 1.01 | 14100 ± 520 nM |  | 
